The values that follow come from ChEMBL document CHEMBL2073821, “Immunohistochemical and functional characterization of pH-dependent intestinal absorption of weak organic acids by the monocarboxylic acid transporter MCT1” (J Pharm Pharmacol, 1999).

Square brackets hold non-standard residues; d marks the D form. Peptide text beside a SMILES is read from it. Sar = CNCC(=O)O

What all share (type): functional, cell-based
Settings in all cases: MDA-MB-231

For test [1], the target named is T1, Monocarboxylate transporter 1 (Rattus norvegicus) (UniProt P53987).
T1 sequence (whole entry): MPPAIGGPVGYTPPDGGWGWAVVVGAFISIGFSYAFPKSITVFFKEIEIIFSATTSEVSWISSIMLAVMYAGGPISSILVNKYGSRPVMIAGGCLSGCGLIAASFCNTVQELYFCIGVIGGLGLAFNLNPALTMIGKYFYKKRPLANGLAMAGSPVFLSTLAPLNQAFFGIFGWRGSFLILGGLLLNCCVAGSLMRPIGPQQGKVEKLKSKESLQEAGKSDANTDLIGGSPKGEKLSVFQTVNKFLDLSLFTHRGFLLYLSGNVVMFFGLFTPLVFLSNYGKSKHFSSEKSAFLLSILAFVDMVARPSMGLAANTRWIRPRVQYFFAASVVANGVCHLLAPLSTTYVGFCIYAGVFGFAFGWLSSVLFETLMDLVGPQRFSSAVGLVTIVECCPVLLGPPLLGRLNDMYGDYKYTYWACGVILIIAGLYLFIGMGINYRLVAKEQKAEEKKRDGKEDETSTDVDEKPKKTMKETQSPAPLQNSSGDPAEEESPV
In words: TP_TRANSPORTER: uptake of D-Lactic Acid at a concentration of 3uM in MCT1-expressing MDA-MB231 cells.

Test [2] addresses T1, Monocarboxylate transporter 1 (Rattus norvegicus). In words: TP_TRANSPORTER: uptake of P-Aminohippuric acid at a concentration of 9uM in MCT1-expressing MDA-MB231 cells.
Test [3] has the same target. As to the kind of experiment: TP_TRANSPORTER: uptake of Faropenem at a concentration of 76uM in MCT1-expressing MDA-MB231 cells.
The target is the same in test [4]. As to the kind of experiment: TP_TRANSPORTER: uptake of Methotrexate at a concentration of 0.03uM in MCT1-expressing MDA-MB231 cells.
Test [5] shares this target. As to the kind of experiment: TP_TRANSPORTER: uptake of Glutamic acid at a concentration of 0.01uM in MCT1-expressing MDA-MB231 cells.
Test [6] has the same target. As to the kind of experiment: TP_TRANSPORTER: uptake of Butyric acid at a concentration of 137uM in MCT1-expressing MDA-MB231 cells.
For test [7] the target is unchanged. As to the kind of experiment: TP_TRANSPORTER: uptake of Foscarnet at a concentration of 3uM in MCT1-expressing MDA-MB231 cells.
Test [8] has the same target. As to the kind of experiment: TP_TRANSPORTER: uptake of Glycylsarcosine at a concentration of 17uM in MCT1-expressing MDA-MB231 cells.
Test [9] shares this target. As to the kind of experiment: TP_TRANSPORTER: uptake of Valproic acid at a concentration of 19uM in MCT1-expressing MDA-MB231 cells.
Test [10] shares this target. As to the kind of experiment: TP_TRANSPORTER: uptake of Mevalonic acid at a concentration of 67uM in MCT1-expressing MDA-MB231 cells.
The target is the same in test [11]. As to the kind of experiment: TP_TRANSPORTER: uptake of Propionic acid at a concentration of 7uM in MCT1-expressing MDA-MB231 cells.

For `C[C@@H](O)C(=O)O`, in test [1], the Activity entry is “substrate [+]”.
Consider `Nc1ccc(C(=O)NCC(=O)O)cc1`, for which the Activity entry in [2] is “is not a substrate [-]”.
For the molecule `C[C@@H](O)[C@H]1C(=O)N2C(C(=O)O)=C([C@H]3CCCO3)S[C@H]12`, in test [3], the Activity result was “is not a substrate [-]”.
Turning to `CN(Cc1cnc2nc(N)nc(N)c2n1)c1ccc(C(=O)N[C@@H](CCC(=O)O)C(=O)O)cc1`, in test [4], the Activity entry is “is not a substrate [-]”.
On to `N[C@@H](CCC(=O)O)C(=O)O`, for which the Activity entry in test [5] is “is not a substrate [-]”.
Consider `CCCC(=O)O`, for which the Activity entry in test [6] was “substrate [+]”.
On to `O=C(O)P(=O)(O)O`, for which the Activity entry in [7] is “substrate [+]”.
Regarding `CN(CC(=O)O)C(=O)CN` (H-Gly-[Sar]-OH), the Activity result in test [8] is “is not a substrate [-]”.
As for `CCCC(CCC)C(=O)O`, the Activity result in test [9] is “is not a substrate [-]”.
As for `C[C@@](O)(CCO)CC(=O)O`, in test [10], the Activity result is “is not a substrate [-]”.
With `CCC(=O)O`, the Activity result in test [11] is “substrate [+]”.
